Columns and labels:
Format in all cases: in vivo
B57BL/6J mice [1] = assay: Cold stress-mediated immunosuppression in anti-platelet (CD41) Ig induced immune thrombocytopenia (ITP) model, platelet counts; conditions: for rescue of cold stress-mediated immunosuppression (ITP model): FIG. 8
Description: (§1) Experiment outlines (A and C). The effects of tanshinone IIA treatments on the cold-mediated amelioration of immune thrombocytopenia (ITP) (B) and cold-suppressed bacterial clearance (D) were analyzed. The data are representative of three independent experiments with two mice per group (n=6). ** P<0.01 compared with the respective vehicle (25° C.) groups, ##P<0.01 compared with the respective tanshinone IIA 25° C. groups (B and D).
(§2) The effects of tanshinone I (A), crytotanshinone (B), tanshinone IIA sodium sulfate (C) treatments on the cold-mediated amelioration of immune thrombocytopenia (ITP) were analyzed. The data are representative of three independent experiments with two mice per group (n=6). ** P<0.01 compared with the respective vehicle (25° C.) groups, ##P<0.01 compared with the respective tanshinone IIA 25° C. groups.
(§3) Autoimmune thrombocytopenia (ITP) mouse model, through intravascular injections of anti-platelet (CD41) Ig following previously reported methods (Huang et al., Blood 2010; 116:5002-9), was employed to investigate the immunosuppressive property of cold exposure and restraint stress, and immune enhancing properties of tanshinone IIA and its derivatives. The B57BL/6J mice were intravenously injected with 0.1 mg/kg (body weight) of an antiplatelet monoclonal antibody (rat antimouse integrin αIIb/CD41 Ig, clone MWReg30, BD PharMingen) to induce ITP. Mice with or without injections of anti-CD41 Ig were subjected to cold exposure and restraint stress. To address the immune enhancing properties of tanshinone IIA, these mice were further treated with or without tanshinone I, tanshinone IIA, tanshinone IIA sodium sulfate, crytotanshinone (10-2 to 10 mg/kg) treatments. To determine the mouse platelet counts, whole blood samples (100-120 μL) of the mice were collected from the retro-orbital venous plexus and mixed with an anticoagulant, a citrate dextrose solution (38 mM citric acid, 75 mM sodium citrate, and 100 mM dextrose), in Eppendorf tubes. Subsequently, platelet counts were measured using a hematology analyzer (KX-21N, Sysmex) at various time intervals as previously described (Chan et al., Oncotarget 2018; 9:12781-95; Huang et al., Blood 2010; 116:5002-9).

B57BL/6J mice [2] = assay: Restraint stress-mediated immunosuppression in anti-platelet (CD41) Ig induced immune thrombocytopenia (ITP) model, platelet counts; conditions: for rescue of restraint stress-mediated immunosuppression (ITP model): restraint (psychological) stress, FIG. 7
Description: Experiment outlines (A). The effects of tanshinone IIA treatments on the restraint stress-mediated amelioration of immune thrombocytopenia (ITP) (B) were analyzed. The data are representative of three independent experiments with two mice per group (n=6). ** P<0.01 compared with the respective vehicle groups in the tanshinone IIA vs. vehicle treatments (B).
as §2, with “restraint stress-mediated” for “cold-mediated”, “(n=6). * P<0.05,” for “(n=6).”, “without stress (0 h)” for “(25° C.)”, “groups, #P<0.05,” for “groups,”, “IIA, without stress groups in the ITP experiments.” for “IIA 25° C. groups.”
as §3

E. coli, BL21 = assay: Cold-suppressed bacterial clearance (surviving bacteria in spleen); conditions: mice challenged i.v. with E. coli, compared to vehicle control (without immunosuppression) groups, FIG. 4D
Description: as §1
The bacterium E. coli was cultured using standard methods. To analyze the immunosuppressive effects of cold exposure and restraint stress on bacterial clearance, following our previously developed methods (Chan et al., Oncotarget 2018; 9:12781-95), the experimental mice were challenged by intravenously administering bacteria (E. coli, BL21, 6×10^9 CFU/kg; no mortality within 24 h at 4° C.); a 40-h circulating equilibrium at a 25° C. environment was required before cold exposure (control groups: 25° C. exposure) and restraint stress. One day after treatment with cold exposure or restraint stress, the spleens of the euthanized mice were collected and weighed. After homogenization (homogenizer, BioSpec Products, Racine, Wis., USA) in PBS, surviving bacteria (colony forming units [CFUs]) in the spleen tissues were quantified using the standard plating method. […]

B57BL/6J mice [3] = assay: Restraint stress-induced gastrointestinal leakage (circulating Evans blue); conditions: stressed, 9 h groups with vs without TSNIIA, #P<0.05, FIG. 1
Description: (§4) Experiment outlines (A). The effects of tanshinone IIA treatments on the amelioration of restraint stress induced gastrointestinal leakage (B) were analyzed. The data are representative of three independent experiments with two mice per group (n=6). * P<0.05 compared with the respective 5 h, no stress groups, #P<0.05 compared with the respective stress groups of each time course (B). EB: Evans blue.
(§5) The results of the exemplary rescue of restraint stress-induced gastrointestinal leakage by tanshinone IIA (TSNIIA) treatments are shown in FIG. 1. Evans blue, a gastrointestinal non-absorbable dye, is able to bind circulating albumin to form dye-protein complexes, which cannot normally penetrate the endothelial cell layers of the vascular system, unless the tissue has been damaged (Yao et al., Contrast Media Mol Imaging 2018; 2018:7628037). Accordingly, circulating Evens blue levels are approximately and proportionally correlated to the levels of gastrointestinal injury.

B57BL/6J mice [4] = assay: Cold stress-induced gastrointestinal leakage (circulating Evans blue); conditions: stressed, 9 h groups with vs without TSNIIA, #P<0.05, FIG. 3
Description: as §4, with “cold exposure-induced” for “restraint stress induced”, “** P<0.01” for “* P<0.05”
as §5

cortisol = assay: Cold stress-induced plasma cortisol (ELISA); conditions: mice, FIG. 5
Description: The time course on the effects of tanshinone IIA treatments on the cold-mediated amelioration of immune thrombocytopenia (ITP) (A) and cold-induced elevation of cortisol (B) was analyzed. The data are representative of three independent experiments with two mice per group (n=6). ** P<0.01 compared with the respective vehicle (25° C.)/vehicle (0 h) groups.
Blood samples were collected from experimental mice under cold stress or restraint stress for 7 h. The plasma levels of cortisol were measured using an ELISA kit (Cayman Chemical, Ann Arbor, Mich., USA) as previously described (Chan et al., Oncotarget 2018; 9:12781-95).

Molecule | rescue of cold stress-mediated immunosuppression (ITP model) (B57BL/6J mice [1]) | rescue of restraint stress-mediated immunosuppression (ITP model) (B57BL/6J mice [2]) | platelet counts after cold stress in anti-platelet (CD41) Ig induced thrombocytopenia (B57BL/6J mice [1]; compared to vehicle control (without immunosuppression) groups, FIG. 4B) | platelet counts after restraint stress in anti-platelet (CD41) Ig induced thrombocytopenia (B57BL/6J mice [2]; restraint stress, compared to vehicle control (without immunosuppression) groups, FIG. 2) | bacterial clearance rate after cold stress (E. coli, BL21) | restraint stress-induced gastrointestinal injury (circulating Evans blue levels) (B57BL/6J mice [3]) | cold stress-induced gastrointestinal injury (circulating Evans blue levels) (B57BL/6J mice [4]) | cold stress-induced levels of circulating cortisol (cortisol)
C[C@H]1COC2=C1C(=O)C(=O)c1c2ccc2c1CCCC2(C)C [crytotanshinone] | exert similar immune enhancing properties under cold stress | exert similar immune enhancing properties under psychological stress | – | – | – | – | – | –
tanshinone IIA sodium sulfate | exert similar immune enhancing properties under cold stress | exert similar immune enhancing properties under psychological stress | – | – | – | – | – | –
Cc1coc2c1C(=O)C(=O)c1c-2ccc2c1CCCC2(C)C [tanshinone IIA] | exert similar immune enhancing properties under cold stress | exert similar immune enhancing properties under psychological stress | remain low and do not show statistical significance as compared to the vehicle control | remain low and do not show statistical significance as compared to the vehicle control | the bacterial clearance rate is high | able to ameliorate stress-induced gastrointestinal injury | able to ameliorate cold stress-induced gastrointestinal injury | counteract the cold stress-induced levels of circulating anti-inflammatory steroid hormone cortisol
Cc1coc2c1C(=O)C(=O)c1c-2ccc2c(C)cccc12 [tanshinone I] | exert similar immune enhancing properties under cold stress | exert similar immune enhancing properties under psychological stress | – | – | – | – | – | –

Reference: patent US20210393585A1, “METHOD FOR PREVENTING AND/OR TREATING A STRESS-INDUCED DISEASE” (TZU CHI UNIVERSITY, priority 2020, published 2021)
